Results on 32 compounds are retold here after patent publication US20250145633A1, “SUBSTITUTED FURANOPYRIMIDINE COMPOUNDS AS PDE1 INHIBITORS” (Dart NeuroScience, LLC, priority 2017, published 2025).

Molecules are shown by their SMILES. Some results are limits rather than exact numbers.

One assay addresses human PDE1B enzyme (Homo sapiens (Human), UniProt Q01064). The assay is described as follows: IMAP TR-FRET PDE1B enzymatic assay. Particulars: negative log of half-maximal molar inhibitory concentration; 200 nM FAM-cAMP; values given as bins. The assay is classed as biochemical. In outline: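 Full-length GST-tagged human PDE1B (250 pg/well) in IMAP BSA buffer with 10 U/ml calmodulin and 2.5 mM CaCl2; compound pre-incubated 5 min at room temperature, then 200 nM (final) FAM-cAMP for 30 min. IMAP binding reagent/Tb added, 1 h; TR-FRET 520/490 ratio read. IC50 from sigmoidal dose-response fit.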
For orientation: Time-resolved FRET reads energy transfer from a long-lived donor to a nearby acceptor.
On to `Cc1oc2ncnc(NC3(C)CC3)c2c1C(=O)NCc1ccc(C(F)(F)F)cn1` [Example 450, 6-Methyl-4-[(1-methylcyclopropyl)amino]-N-{[5-(trifluoromethyl)pyridin-2-yl]methyl}furo[2,3-d]pyrimidine-5-carboxamide], for which the “PDE1b (pIC50)” value is >8.

In the case of `Cc1nsc(NC(=O)c2c(C)oc3ncnc(NC4(C)CC4)c23)n1` [Example 454, 6-Methyl-N-(3-methyl-1,2,4-thiadiazol-5-yl)-4-[(1-methylcyclopropyl)amino]furo[2,3-d]pyrimidine-5-carboxamide], the “PDE1b (pIC50)” value was >8.

On to `Cc1cnc(CNC(=O)c2c(C)oc3ncnc(NC4(C)CC4)c23)cn1` [Example 460, 6-Methyl-4-[(1-methylcyclopropyl)amino]-N-[(5-methylpyrazin-2-yl)methyl]furo[2,3-d]pyrimidine-5-carboxamide], for which the “PDE1b (pIC50)” value was >8.

As to `Cc1oc2ncnc(NC3(C)CC3)c2c1C(=O)NCc1noc(C2CC2)n1` [Example 464, N-[(5-Cyclopropyl-1,2,4-oxadiazol-3-yl)methyl]-6-methyl-4-[(1-methylcyclopropyl)amino]furo[2,3-d]pyrimidine-5-carboxamide], the “PDE1b (pIC50)” value is on record as >8.

Consider `Cc1cnc(CNC(=O)c2c(C)oc3ncnc(NC4(C)CC4)c23)s1` [Example 467, 6-Methyl-N-[(5-methyl-1,3-thiazol-2-yl)methyl]-4-[(1-methylcyclopropyl)amino]furo[2,3-d]pyrimidine-5-carboxamide], for which the “PDE1b (pIC50)” value is on record as >8.

For the compound `CCC(NC(=O)c1c(C)oc2ncnc(NC3(C)CC3)c12)c1ccc(OC)cc1` (centres unmarked) [Example 475, N-[1-(4-Methoxyphenyl)propyl]-6-methyl-4-[(1-methylcyclopropyl)amino]furo[2,3-d]pyrimidine-5-carboxamide], the “PDE1b (pIC50)” value is recorded as >8.

In the case of `COc1ccc(CNC(=O)c2c(C)oc3ncnc(NC4(C)CC4)c23)cc1F` [Example 483, N-[(3-Fluoro-4-methoxyphenyl)methyl]-6-methyl-4-[(1-methylcyclopropyl)amino]furo[2,3-d]pyrimidine-5-carboxamide], the “PDE1b (pIC50)” value is >8.

Staying with this assay, now noted: negative log of half-maximal molar inhibitory concentration; 200 nM FAM-cAMP; values given as bins; read-out: PDE1b (pIC50) (converted).
Turning to `Cc1oc2ncnc(NC3(C)CC3)c2c1C(=O)N1CCC(C#N)(c2cccc(F)n2)CC1` [Example 444, 4-(6-Fluoropyridin-2-yl)-1-{6-methyl-4-[(1-methylcyclopropyl)amino]furo[2,3-d]pyrimidine-5-carbonyl}piperidine-4-carbonitrile], the IC50 was 10 to 100 nM.

Consider `Cc1oc2ncnc(NC3(C)CC3)c2c1C(=O)Nc1ccn(C(C)C)n1` [Example 445, 6-Methyl-4-[(1-methylcyclopropyl)amino]-N-[1-(propan-2-yl)-1H-pyrazol-3-yl]furo[2,3-d]pyrimidine-5-carboxamide], for which the IC50 was 10 to 100 nM.

As for `Cc1oc2ncnc(NC3(C)CC3)c2c1C(=O)Nc1ccn(-c2ncccc2F)n1` [Example 446, N-[1-(3-Fluoropyridin-2-yl)-1H-pyrazol-3-yl]-6-methyl-4-[(1-methylcyclopropyl)amino]furo[2,3-d]pyrimidine-5-carboxamide], the IC50 is 10 to 100 nM.

Take `Cc1oc2ncnc(NC3(C)CC3)c2c1C(=O)Nc1cnn(-c2ncccc2F)c1` [Example 447, N-[1-(3-Fluoropyridin-2-yl)-1H-pyrazol-4-yl]-6-methyl-4-[(1-methylcyclopropyl)amino]furo[2,3-d]pyrimidine-5-carboxamide]: the IC50 is 10 to 100 nM.

Turning to `Cc1cnc(CNC(=O)c2c(C)oc3ncnc(NC4(C)CC4)c23)o1` [Example 448, 6-Methyl-N-[(5-methyl-1,3-oxazol-2-yl)methyl]-4-[(1-methylcyclopropyl)amino]furo[2,3-d]pyrimidine-5-carboxamide], the IC50 is 10 to 100 nM.

Consider `COc1nccc(CNC(=O)c2c(C)oc3ncnc(NC4(C)CC4)c23)n1` [Example 449, N-[(2-Methoxypyrimidin-4-yl)methyl]-6-methyl-4-[(1-methylcyclopropyl)amino]furo[2,3-d]pyrimidine-5-carboxamide], for which the IC50 is 10 to 100 nM.

`Cc1coc(NC(=O)c2c(C)oc3ncnc(NC4(C)CC4)c23)n1` [Example 451, 6-Methyl-N-(4-methyl-1,3-oxazol-2-yl)-4-[(1-methylcyclopropyl)amino]furo[2,3-d]pyrimidine-5-carboxamide]: the IC50 is 10 to 100 nM.

As to `Cc1noc(NC(=O)c2c(C)oc3ncnc(NC4(C)CC4)c23)n1` [Example 452, 6-Methyl-N-(3-methyl-1 2 4-oxadiazol-5-yl)-4-[(1-methylcyclopropyl)amino]furo[2,3-d]pyrimidine-5-carboxamide], the IC50 was 10 to 100 nM.

With `Cc1nc(NC(=O)c2c(C)oc3ncnc(NC4(C)CC4)c23)cs1` [Example 453, 6-Methyl-N-(2-methyl-1,3-thiazol-4-yl)-4-[(1-methylcyclopropyl)amino]furo[2,3-d]pyrimidine-5-carboxamide], the IC50 is 10 to 100 nM.

As to `Cc1ncnc2c1CCN(C(=O)c1c(C)oc3ncnc(NC4(C)CC4)c13)C2` [Example 455, 6-Methyl-5-f{4-methyl-5H,6H,7H,8H-pyrido[3,4-d]pyrimidine-7-carbonyl}-N-(1-methylcyclopropyl)furo[2,3-d]pyrimidin-4-amine], the IC50 was 10 to 100 nM.

Take `Cc1oc2ncnc(NC3(C)CC3)c2c1C(=O)Nc1cnn(C2CCOCC2)c1` [Example 456, 6-Methyl-4-[(1-methylcyclopropyl)amino]-N-[1-(oxan-4-yl)-1H-pyrazol-4-yl]furo[2,3-d]pyrimidine-5-carboxamide]: the IC50 is 10 to 100 nM.

For the compound `Cc1oc2ncnc(NC3(C)CC3)c2c1C(=O)NCc1noc(C(F)(F)F)n1` [Example 457, 6-Methyl-4-[(1-methylcyclopropyl)amino]-N-{[5-(trifluoromethyl)-1,2,4-oxadiazol-3-yl]methyl}furo[2,3-d]pyrimidine-5-carboxamide], the IC50 was 10 to 100 nM.

Consider `Cc1ccnc(CNC(=O)c2c(C)oc3ncnc(NC4(C)CC4)c23)n1` [Example 458, 6-Methyl-4-[(1-methylcyclopropyl)amino]-N-[(4-methylpyrimidin-2-yl)methyl]furo[2,3-d]pyrimidine-5-carboxamide], for which the IC50 is 10 to 100 nM.

In the case of `Cc1cc(C)nc(CNC(=O)c2c(C)oc3ncnc(NC4(C)CC4)c23)n1` [Example 459, N-[(4,6-Dimethylpyrimidin-2-yl)methyl]-6-methyl-4-[(1-methylcyclopropyl)amino]furo[2,3-d]pyrimidine-5-carboxamide], the IC50 was 10 to 100 nM.

`Cc1nc(CNC(=O)c2c(C)oc3ncnc(NC4(C)CC4)c23)no1` [Example 461, 6-Methyl-N-[(5-methyl-1,2,4-oxadiazol-3-yl)methyl]-4-[(1-methylcyclopropyl)amino]furo[2,3-d]pyrimidine-5-carboxamide]: the IC50 is 10 to 100 nM.

With `COC(=O)c1cnc(C2CN(C(=O)c3c(C)oc4ncnc(NC5(C)CC5)c34)C2)nc1` [Example 462, Methyl 2-(1-{6-methyl-4-[(1-methylcyclopropyl)amino]furo[2,3-d]pyrimidine-5-carbonyl}azetidin-3-yl)pyrimidine-5-carboxylate], the IC50 is 100 to 1000 nM.

For the compound `Cc1oc2ncnc(NC3(C)CC3)c2c1C(=O)NCc1nnc2ccc(C(F)(F)F)cn12` [Example 463, 6-Methyl-4-[(1-methylcyclopropyl)amino]-N-{[6-(trifluoromethyl)-[1,2,4]triazolo[4,3-a]pyridin-3-yl]methyl}furo[2,3-d]pyrimidine-5-carboxamide], the IC50 is 10 to 100 nM.

With `Cc1oc2ncnc(NC3(C)CC3)c2c1C(=O)N1CCc2c(ncnc2OC(C)C)C1` [Example 465, 6-Methyl-N-(1-methylcyclopropyl)-5-[4-(propan-2-yloxy)-5H,6H,7H,8H-pyrido[3,4-d]pyrimidine-7-carbonyl]furo[2,3-d]pyrimidin-4-amine], the IC50 was 10 to 100 nM.

As to `Cc1ccnc(CNC(=O)c2c(C)oc3ncnc(NC4(C)CC4)c23)c1` [Example 466, 6-Methyl-4-[(1-methylcyclopropyl)amino]-N-[(4-methylpyridin-2-yl)methyl]furo[2,3-d]pyrimidine-5-carboxamide], the IC50 was 10 to 100 nM.

`Cc1nnc(CNC(=O)c2c(C)oc3ncnc(NC4(C)CC4)c23)s1` [Example 468, 6-Methyl-N-[(5-methyl-1,3,4-thiadiazol-2-yl)methyl]-4-[(1-methylcyclopropyl)amino]furo[2,3-d]pyrimidine-5-carboxamide]: the IC50 was 10 to 100 nM.

On to `Cc1oc2ncnc(NC3(C)CC3)c2c1C(=O)N(C)c1cnn(C)c1` [Example 469, N,6-Dimethyl-N-(1-methyl-1H-pyrazol-4-yl)-4-[(1-methylcyclopropyl)amino]furo[2,3-d]pyrimidine-5-carboxamide], for which the IC50 was 100 to 1000 nM.

For the compound `Cc1oc2ncnc(NC3(C)CC3)c2c1C(=O)N(C)c1cnn(C(C)C)c1` [Example 470, N,6-Dimethyl-4-[(1-methylcyclopropyl)amino]-N-[1-(propan-2-yl)-1H-pyrazol-4-yl]furo[2,3-d]pyrimidine-5-carboxamide], the IC50 was 100 to 1000 nM.

For the compound `Cc1oc2ncnc(NC3(C)CC3)c2c1C(=O)N1CCc2cncnc2C1` [Example 471, 6-Methyl-N-(1-methylcyclopropyl)-5-f{5H,6H,7H,8H-pyrido[3,4-d]pyrimidine-7-carbonyl}furo[2,3-d]pyrimidin-4-amine], the IC50 is 10 to 100 nM.

`Cc1oc2ncnc(NC3(C)CC3)c2c1C(=O)Nc1cnn(Cc2ccccn2)c1` [Example 472, 6-Methyl-4-[(1-methylcyclopropyl)amino]-N-[1-(pyridin-2-ylmethyl)-1H-pyrazol-4-yl]furo[2,3-d]pyrimidine-5-carboxamide]: the IC50 was 10 to 100 nM.

For `Cc1oc2ncnc(NC3(C)CC3)c2c1C(=O)Nc1cnn(-c2ncccn2)c1` [Example 473, 6-Methyl-4-[(1-methylcyclopropyl)amino]-N-[1-(pyrimidin-2-yl)-1H-pyrazol-4-yl]furo[2,3-d]pyrimidine-5-carboxamide], the IC50 was 10 to 100 nM.
